Source: patent publication US20250127773A1, “MODULATORS OF THE BETA-3 ADRENERGIC RECEPTOR USEFUL FOR THE TREATMENT OR PREVENTION OF HEART FAILURE” (Arena Pharmaceuticals, Inc., priority 2021, published 2025)

Biological target: T1, Beta-3 Adrenergic Receptor (Homo sapiens, UniProt P13945)
T1 construct: expressed in transfected cells; host or cells: CHO-K1
Assay: HTRF cAMP antagonist assay, IC50 determination
Assay type: cell-based
Conditions: CHO-K1 cells stably expressing recombinant receptor; vs isoproterenol at EC90; unit nM
Description: HTRF CAMP assays were performed according to manufacturer's instructions (Cisbio, CAMP Dynamic 2 Assay Kit; #62AM4PEJ). CHO-K1 cells stably expressing recombinant receptor were harvested and suspended in warm PBS to make a 300,000 cells/mL stock. This cell suspension was dispensed into 384 well assay plates (PerkinElmer ProxiPlate #6008280) at 5 μL per well (1500 cells/well) along with a CAMP standard curve.
Compounds were dissolved and serially diluted (5-fold) in DMSO to generate a 10-point dose response stock. […] After a brief incubation, 2.5 μL of isoproterenol stock, prepared at a concentration 4 times its EC90 at the receptor of interest, was added to the wells. The EC90 for isoproterenol, a beta-adrenergic agonist, was determined in separate experiments using standard methods to measure agonist potencies.
Following a 1-hour incubation at room temperature, 5 μL of CAMP-D2 Reagent diluted in Lysis Buffer was added to each well followed by 5 μL of Cryptate Reagent. Plates were further incubated at room temperature for 1 hour prior to reading. Time resolved fluorescence measurements were collected on a suitable, HTRF-capable plate reader.
Counts from the plate reader were fit to the CAMP standard curve on the assay plate in order to determine cAMP concentrations in each well, and these values were used to construct dose-response curves to obtain IC50 values.

T1 sequence (P13945 whole entry): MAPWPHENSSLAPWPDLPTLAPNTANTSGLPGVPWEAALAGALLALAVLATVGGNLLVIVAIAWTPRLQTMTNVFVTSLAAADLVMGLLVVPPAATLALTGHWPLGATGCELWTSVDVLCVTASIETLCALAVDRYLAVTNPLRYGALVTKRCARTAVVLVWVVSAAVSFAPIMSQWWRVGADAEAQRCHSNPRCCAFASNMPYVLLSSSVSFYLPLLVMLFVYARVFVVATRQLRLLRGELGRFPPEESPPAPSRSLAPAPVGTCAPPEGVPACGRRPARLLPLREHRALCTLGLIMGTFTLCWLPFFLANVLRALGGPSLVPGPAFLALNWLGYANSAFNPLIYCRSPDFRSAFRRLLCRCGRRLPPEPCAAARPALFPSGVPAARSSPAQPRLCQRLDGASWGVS

| SMILES | IC50 [nM] |
| --- | --- |
| C[C@@H](NS(=O)(=O)c1cccc(OC[C@@H](O)CNC2COC3(CCN(S(=O)(=O)c4ccc5ccccc5c4)CC3)C2)c1)C1CC1 (stereo partly drawn) [Compound B93, N—((R)-1-cyclopropylethyl)-3-((2S)-2-hydroxy-3-(8-(naphthalen-2-ylsulfonyl)-1-oxa-8-25 azaspiro[4.5]decan-3-ylamino)propoxy)benzenesulfonamide] | 112 |
| CNS(=O)(=O)c1cccc(OCC(O)CNC2COC3(CCN(S(=O)(=O)c4cccc(-c5cnn(C)c5)c4)CC3)C2)c1 [Compound B216, 3-((S)-2-hydroxy-3-((S)-8-(3-(1-methyl-1H-pyrazol-4-yl)phenylsulfonyl)-1-oxa-8-azaspiro[4.5]decan-3-ylamino)propoxy)-N-20 methylbenzenesulfonamide] | 57.7 |
| CCOCCNS(=O)(=O)c1cccc(OCC(O)CNC2COC3(CCN(S(=O)(=O)c4ccc5ccccc5c4)CC3)C2)c1 [Compound B47, NV-(2-ethoxyethyl)-3-((2S)-2-hydroxy-3-(8-(naphthalen-2-ylsulfonyl)-1-oxa-8-azaspiro[4.5]decan-3-ylamino)propoxy)benzenesulfonamide] | 155 |
